Molecules are shown by their SMILES.

The values that follow come from paper PMC3726336, “Product inhibition of cellulases studied with ^14C-labeled cellulose substrates” (Biotechnology for Biofuels, 2013).

The target of one assay is CtCel7A (Chaetomium thermophilum, UniProt A7WNU1). The assay can be described thus: Cellobiose inhibition of MUL hydrolysis by CtCel7A. Particulars: MUL substrate (5 μM). It counts as biochemical. The text has this:
The cellobiose inhibition of GH7 CBHs is most often studied on low-Mw model substrates. However, it has been shown that the inhibition of CBHs acting on low-Mw substrates appears to be much stronger than that on cellulose substrates. The Ki values for cellobiose inhibition of GH7 CBHs measured on low-Mw substrates are in the micromolar range [44, 51, 52], whereas those measured on cellulose are in the low- to high-millimolar range [28, 31, 32]. […] Unfortunately, the inhibition of this enzyme on cellulose has not been studied. We also studied the cellobiose inhibition of GH7 CBHs acting on MUL. The initial rates of MUL hydrolysis measured in the presence and absence of added cellobiose were first analyzed according to Equation 1, and the IC50 values were found using Equation 2. […] The inhibition of MUL hydrolysis is attributable to the binding of cellobiose to the product sites (+1/+2) of TrCel7A [52]. […]
For the inhibition of enzyme acting on the low-Mw substrate, the initial rates of the hydrolysis of MUL in the presence and absence of added cellobiose were followed. […] Reactions were stopped by the addition of NH3 (final concentration 0.1 M), and the released 4-methylumbelliferone was quantified by fluorescence using excitation and emission wavelengths of 360 nm and 450 nm, respectively.

In assay [1] the target is T1, TrCel5A (Trichoderma reesei, UniProt P07982).
T1 construct: TrCel7B, TrCel5A, and TrCel12A were purified from the culture filtrate of Tr QM 9414; made in house; host or cells: Trichoderma reesei QM 9414 culture filtrate (native producer)
The assay can be described thus: Cellobiose inhibition of hydrolysis of 14C-amorphous cellulose by TrCel5A. It counts as biochemical. As to conditions: TrCel5A (5.0 nM), 35°C, not accountable by Equation 5. The text has this:
EGs are a diverse group of enzymes present in all efficient cellulase systems. Their best recognized function is their synergism with CBHs. Depending on the conditions, the degree of synergistic effect may be more than 10-fold. Therefore, the inhibition of the EG component may result in a drastic decrease in the rate of the synergistic hydrolysis of cellulose. The main soluble product of the EG-catalyzed cellulose hydrolysis is cellobiose, but some glucose and higher-order oligosaccharides are also produced. Here, we studied the cellobiose inhibition of the EGs TrCel7B, TrCel5A and TrCel12A with ^14C-amorphous cellulose substrate. The enzyme concentrations and hydrolysis times were adjusted so that the linear region of the time course was studied. The time courses for the hydrolysis of ^14C-amorphous cellulose by TrCel7B in the presence and absence of added cellobiose are shown in Figure 9A. For the results with TrCel5A and TrCel12A, see Additional file 1: Figure S5. […] This figure is reasonably well in line with that measured for TrCel7B on amorphous cellulose using isothermal titration calorimetry. […]
EGs were assessed on ^14C-amorphous cellulose. ^14C-amorphous cellulose (0.5 g l^-1) was incubated (with shaking at 700 rpm) with EG in 50 mM sodium acetate buffer, pH 5.0, containing BSA (0.1 g l^-1) in the presence and absence of added cellobiose. […]

A further assay deals with T2, TrCel7B (Trichoderma reesei, UniProt P07981).
T2 construct: TrCel7B, TrCel5A, and TrCel12A were purified from the culture filtrate of Tr QM 9414; made in house; host or cells: Trichoderma reesei QM 9414 culture filtrate (native producer)
The arrangement: method as in PMID 15129433. Particulars: 3H-reduced amorphous cellulose substrate, read-out: apparent Ki value; cited from earlier work.

In assay [2] the target is T1, TrCel5A. The arrangement: method as in doi:10.1016/j.tca.2005.01.025. Particulars: TrCel5A acting on cellohexaose; read-out: Ki value for cellobiose inhibition; cited from earlier work.

Sequence of CtCel7A (A7WNU1 entry or part of it): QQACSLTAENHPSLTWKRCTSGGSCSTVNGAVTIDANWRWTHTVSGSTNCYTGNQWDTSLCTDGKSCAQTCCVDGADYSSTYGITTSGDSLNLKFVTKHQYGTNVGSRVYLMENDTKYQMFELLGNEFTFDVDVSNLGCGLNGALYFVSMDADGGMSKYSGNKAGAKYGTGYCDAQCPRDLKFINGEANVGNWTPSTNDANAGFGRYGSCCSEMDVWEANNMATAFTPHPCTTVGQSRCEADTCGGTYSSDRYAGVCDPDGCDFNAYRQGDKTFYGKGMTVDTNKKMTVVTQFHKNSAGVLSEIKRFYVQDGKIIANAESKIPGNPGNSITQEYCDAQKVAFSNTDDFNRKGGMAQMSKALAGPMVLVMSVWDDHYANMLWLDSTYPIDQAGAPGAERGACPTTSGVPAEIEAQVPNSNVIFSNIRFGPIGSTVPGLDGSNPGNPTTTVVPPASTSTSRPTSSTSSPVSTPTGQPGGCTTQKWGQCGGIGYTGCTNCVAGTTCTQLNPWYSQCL
T1 sequence (P07982 22-418): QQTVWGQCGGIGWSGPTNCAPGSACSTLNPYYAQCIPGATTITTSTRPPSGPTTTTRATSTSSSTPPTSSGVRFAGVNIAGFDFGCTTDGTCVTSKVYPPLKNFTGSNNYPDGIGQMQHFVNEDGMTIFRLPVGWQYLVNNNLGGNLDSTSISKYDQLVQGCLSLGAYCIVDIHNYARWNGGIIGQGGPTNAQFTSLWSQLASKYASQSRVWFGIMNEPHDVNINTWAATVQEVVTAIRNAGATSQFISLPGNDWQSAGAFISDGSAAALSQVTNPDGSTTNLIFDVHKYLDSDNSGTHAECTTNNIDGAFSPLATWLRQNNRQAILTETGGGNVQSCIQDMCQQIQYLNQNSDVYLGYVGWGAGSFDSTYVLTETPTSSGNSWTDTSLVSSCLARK
T2 sequence (P07981 23-459): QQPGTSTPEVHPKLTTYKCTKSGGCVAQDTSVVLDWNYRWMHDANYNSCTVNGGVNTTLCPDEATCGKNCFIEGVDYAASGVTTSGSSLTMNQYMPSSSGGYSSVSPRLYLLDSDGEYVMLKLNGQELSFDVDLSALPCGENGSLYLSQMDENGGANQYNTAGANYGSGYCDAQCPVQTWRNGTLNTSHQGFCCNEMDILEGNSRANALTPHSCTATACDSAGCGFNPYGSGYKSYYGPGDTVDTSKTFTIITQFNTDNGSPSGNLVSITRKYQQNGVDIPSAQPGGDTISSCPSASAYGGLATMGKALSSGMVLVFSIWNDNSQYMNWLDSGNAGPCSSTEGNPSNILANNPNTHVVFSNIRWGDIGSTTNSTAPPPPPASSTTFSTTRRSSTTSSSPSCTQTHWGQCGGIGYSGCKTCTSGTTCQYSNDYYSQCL

Regarding `O=C[C@H](O)[C@@H](O)[C@H](O[C@@H]1O[C@H](CO)[C@@H](O)[C@H](O)[C@H]1O)[C@H](O)CO` [cellobiose, Cellobiose], the Ki on CtCel7A (35°C) was 110 µM; at CtCel7A (50°C), 346 µM; at TrCel7B it was 11000 ± 3000 µM; on TrCel5A [2], 424 µM. Besides, the “IC50 (approximate, by visual inspection of Figure 9B)” value on TrCel5A [1] is given as “few hundred millimolar range”.
